Data published in PMC7367925, “The EU-ToxRisk method documentation, data processing and chemical testing pipeline for the regulatory use of new approach methods” (Archives of Toxicology, 2020).
Read-outs that look alike come from different tables or passages of the source.

Legend:
Progesterone receptor = molecular target: T1, Progesterone receptor (Homo sapiens, UniProt P06401); assay: PR-anti CALUX; assay type: cell-based; conditions: 24 h exposure, lowest effect level PC20, reference agonist at EC50, means from 3 assay runs
T1 construct: host or cells: U-2 OS
T1 sequence (P06401 1-933): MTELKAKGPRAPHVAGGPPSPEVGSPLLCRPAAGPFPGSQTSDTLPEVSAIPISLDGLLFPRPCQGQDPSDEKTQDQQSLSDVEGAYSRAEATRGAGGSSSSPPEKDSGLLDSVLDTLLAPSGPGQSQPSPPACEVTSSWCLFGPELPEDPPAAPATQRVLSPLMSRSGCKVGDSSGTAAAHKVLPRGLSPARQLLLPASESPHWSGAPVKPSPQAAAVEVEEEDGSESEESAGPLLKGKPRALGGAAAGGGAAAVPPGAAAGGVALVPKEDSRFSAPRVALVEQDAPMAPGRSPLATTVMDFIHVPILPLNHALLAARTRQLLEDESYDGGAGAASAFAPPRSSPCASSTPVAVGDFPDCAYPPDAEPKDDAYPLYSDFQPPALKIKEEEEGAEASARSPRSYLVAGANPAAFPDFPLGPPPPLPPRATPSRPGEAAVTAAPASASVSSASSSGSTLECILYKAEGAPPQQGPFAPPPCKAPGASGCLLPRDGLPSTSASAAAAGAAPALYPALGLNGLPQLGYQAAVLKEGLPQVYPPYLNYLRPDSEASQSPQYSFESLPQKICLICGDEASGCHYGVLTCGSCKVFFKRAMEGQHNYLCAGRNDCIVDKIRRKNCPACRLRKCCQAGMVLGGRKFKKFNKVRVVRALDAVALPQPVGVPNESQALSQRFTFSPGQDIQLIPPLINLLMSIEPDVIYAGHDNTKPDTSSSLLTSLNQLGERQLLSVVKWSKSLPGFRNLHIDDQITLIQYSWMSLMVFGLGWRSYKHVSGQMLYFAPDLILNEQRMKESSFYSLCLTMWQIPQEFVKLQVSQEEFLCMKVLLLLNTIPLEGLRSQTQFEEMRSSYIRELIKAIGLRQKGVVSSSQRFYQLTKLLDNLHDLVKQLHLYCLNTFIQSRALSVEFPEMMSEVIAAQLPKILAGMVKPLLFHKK
Procedure: (§1) After 24 h, exposure medium was prepared. […] All samples were tested in triplicates. […] Fig. SM_4. […] Fig. SM_4.
(§2) Supplementary Material SM_4
(§3) Overview of CALUX assays.
(§4) This is defined as the concentration of test compound […]
(§5) for an antagonist assay is a PC20.
(§6) PC = positive control. FI = fold induction. PC10: concentration where test compound causes an activation equal to 10% of the maximum effect (positive control). PC20: concentration where test compound causes […]
(§7) FI=1.5: concentration where test
(§8) (A) exemplary graph of concentration- […]
(§9) receptor antagonism assay with PC20 as lowest-effect-level. (C) exemplary graph for assay with 1.5 fold inductionas lowest effect level. 9

Pregnane X receptor = molecular target: T2, Pregnane X receptor (Homo sapiens, UniProt O75469); assay: PXR CALUX; assay type: cell-based; conditions: 24 h exposure, lowest effect level PC10, means from 3 assay runs
T2 construct: host or cells: U-2 OS
T2 sequence (O75469 1-434): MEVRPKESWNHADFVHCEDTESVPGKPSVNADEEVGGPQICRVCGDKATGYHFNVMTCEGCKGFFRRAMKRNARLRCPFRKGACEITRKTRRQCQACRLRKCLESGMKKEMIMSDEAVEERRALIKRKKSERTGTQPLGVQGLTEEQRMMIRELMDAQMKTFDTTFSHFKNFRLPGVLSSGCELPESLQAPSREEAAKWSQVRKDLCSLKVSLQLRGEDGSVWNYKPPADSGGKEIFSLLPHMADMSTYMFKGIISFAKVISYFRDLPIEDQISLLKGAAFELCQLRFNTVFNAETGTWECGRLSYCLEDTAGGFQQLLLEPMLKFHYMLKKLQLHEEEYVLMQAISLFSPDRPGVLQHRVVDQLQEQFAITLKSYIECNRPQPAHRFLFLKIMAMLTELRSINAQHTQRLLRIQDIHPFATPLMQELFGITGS
Procedure: as §1, §2, §3, §4, §5, §6, §7, §8, §9

PPARα = molecular target: T3, PPARα (Homo sapiens, UniProt Q07869); assay: PPARa CALUX; assay type: cell-based; conditions: 24 h exposure, lowest effect level PC10, means from 3 assay runs
T3 construct: host or cells: U-2 OS
T3 sequence (Q07869 1-468): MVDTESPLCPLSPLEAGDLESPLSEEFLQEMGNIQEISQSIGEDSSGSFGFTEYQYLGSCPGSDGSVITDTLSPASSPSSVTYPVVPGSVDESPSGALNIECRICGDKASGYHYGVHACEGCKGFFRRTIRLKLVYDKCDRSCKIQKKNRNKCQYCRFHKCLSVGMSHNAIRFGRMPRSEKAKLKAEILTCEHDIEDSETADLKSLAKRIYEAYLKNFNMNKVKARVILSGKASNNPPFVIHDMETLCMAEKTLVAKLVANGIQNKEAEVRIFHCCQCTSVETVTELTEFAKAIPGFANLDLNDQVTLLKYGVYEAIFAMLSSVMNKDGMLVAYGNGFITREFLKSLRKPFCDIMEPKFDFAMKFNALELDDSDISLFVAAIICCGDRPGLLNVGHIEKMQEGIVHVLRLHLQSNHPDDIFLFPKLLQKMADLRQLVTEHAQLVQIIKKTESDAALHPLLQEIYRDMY
Procedure: as §1
(§10) Cell line Endpoint effect Reference compound […]
PPARa CALUX Peroxisomeproliferator activated receptor agonists PC10 GW7647 […]
as §2, §3, §4, §5, §6, §7, §8, §9

[1] = tested on: wnt/TCF pathway activation; assay: TCF CALUX; assay type: cell-based, human; conditions: 24 h exposure, lowest effect level FI=1.5, means from 3 assay runs
[2] = tested on: Endoplasmic reticulum stress; assay: ESRE CALUX; assay type: cell-based, human; conditions: 24 h exposure, lowest effect level PC10, means from 3 assay runs
Procedure: as §1, §2, §3, §4, §5, §6, §7, §8, §9

[3] = tested on: Transcription of p21 inhibitor of cell cycle progression; assay: p21 CALUX; assay type: cell-based, human; conditions: 24 h exposure, lowest effect level PC10, means from 3 assay runs
Procedure: as §1, §2, §3, §4, §5, §6, §7, §8, §9

Androgen receptor = molecular target: T4, Androgen receptor (Homo sapiens, UniProt P10275); assay type: cell-based; conditions: 24 h exposure, lowest effect level PC20, reference agonist at EC50, means from 3 assay runs
T4 construct: host or cells: U-2 OS
T4 sequence (P10275 1-920): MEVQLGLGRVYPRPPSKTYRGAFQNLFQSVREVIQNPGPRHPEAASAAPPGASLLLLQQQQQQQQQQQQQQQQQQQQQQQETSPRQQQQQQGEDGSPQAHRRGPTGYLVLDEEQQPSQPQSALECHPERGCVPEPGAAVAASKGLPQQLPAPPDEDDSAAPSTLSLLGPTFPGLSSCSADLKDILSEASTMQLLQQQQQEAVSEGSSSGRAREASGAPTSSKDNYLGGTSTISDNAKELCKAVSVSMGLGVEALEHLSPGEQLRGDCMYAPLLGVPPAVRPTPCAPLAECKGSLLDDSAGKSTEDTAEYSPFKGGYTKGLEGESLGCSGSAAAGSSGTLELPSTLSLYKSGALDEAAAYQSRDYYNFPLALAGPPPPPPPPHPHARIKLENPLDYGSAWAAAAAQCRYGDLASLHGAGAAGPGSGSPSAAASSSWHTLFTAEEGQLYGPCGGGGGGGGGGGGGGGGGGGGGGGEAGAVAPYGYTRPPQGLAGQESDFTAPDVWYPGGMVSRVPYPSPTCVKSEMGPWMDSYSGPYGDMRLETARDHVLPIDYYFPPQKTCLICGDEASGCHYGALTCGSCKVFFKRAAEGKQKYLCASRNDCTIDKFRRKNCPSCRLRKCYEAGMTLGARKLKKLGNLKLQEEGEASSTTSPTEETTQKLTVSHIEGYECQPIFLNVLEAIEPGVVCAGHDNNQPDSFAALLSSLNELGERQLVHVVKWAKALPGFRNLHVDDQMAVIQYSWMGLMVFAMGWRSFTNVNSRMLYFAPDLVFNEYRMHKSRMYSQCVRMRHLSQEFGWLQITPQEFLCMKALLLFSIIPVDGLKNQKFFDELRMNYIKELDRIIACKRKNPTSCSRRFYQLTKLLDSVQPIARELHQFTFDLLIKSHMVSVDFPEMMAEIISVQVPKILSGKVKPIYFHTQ
Procedure: as §1, §2, §3, §4, §5, §6, §7, §8, §9

[4] = molecular target: T5, Thyroid hormone receptor beta (Homo sapiens, UniProt P10828); assay: TRb-anti CALUX; assay type: cell-based; conditions: 24 h exposure, lowest effect level PC20, reference agonist at EC50, means from 3 assay runs
T5 construct: host or cells: U-2 OS
T5 sequence (P10828 1-461): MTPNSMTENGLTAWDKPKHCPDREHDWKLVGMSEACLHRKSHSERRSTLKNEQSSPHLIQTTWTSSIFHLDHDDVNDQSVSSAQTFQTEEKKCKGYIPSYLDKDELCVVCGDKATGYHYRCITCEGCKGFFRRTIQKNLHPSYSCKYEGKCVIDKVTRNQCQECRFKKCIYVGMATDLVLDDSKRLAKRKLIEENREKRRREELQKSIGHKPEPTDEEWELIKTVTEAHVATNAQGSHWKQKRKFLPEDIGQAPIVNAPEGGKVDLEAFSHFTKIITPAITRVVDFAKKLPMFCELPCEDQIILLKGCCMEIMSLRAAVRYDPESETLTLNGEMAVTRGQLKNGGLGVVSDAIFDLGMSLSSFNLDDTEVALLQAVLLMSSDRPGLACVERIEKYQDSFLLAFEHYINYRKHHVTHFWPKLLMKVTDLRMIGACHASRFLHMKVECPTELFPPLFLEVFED
Procedure: as §1, §10
Cytotox CALUX Cytoxicity PC20 tributyltinacetate
as §2, §3, §4, §5, §6, §7, §8, §9

[5] = tested on: p53-dependent pathway activation / genotoxicity; assay type: cell-based, human
Procedure: as §1, §2, §3, §4, §5, §6, §7, §8, §9

U-2 OS cells [6] = conditions: human
[7] = molecular target: T6, Aryl Hydrocarbon receptor (Rattus norvegicus, UniProt P41738); assay: DR CALUX / AhR CALUX (rat hepatoma H-4-II-E cells); assay type: cell-based; conditions: 24 h exposure, lowest effect level PC10, means from 3 assay runs
T6 construct: host or cells: rat hepatoma H-4-II-E (ATCC CRL-1548)
T6 sequence (P41738 10-853): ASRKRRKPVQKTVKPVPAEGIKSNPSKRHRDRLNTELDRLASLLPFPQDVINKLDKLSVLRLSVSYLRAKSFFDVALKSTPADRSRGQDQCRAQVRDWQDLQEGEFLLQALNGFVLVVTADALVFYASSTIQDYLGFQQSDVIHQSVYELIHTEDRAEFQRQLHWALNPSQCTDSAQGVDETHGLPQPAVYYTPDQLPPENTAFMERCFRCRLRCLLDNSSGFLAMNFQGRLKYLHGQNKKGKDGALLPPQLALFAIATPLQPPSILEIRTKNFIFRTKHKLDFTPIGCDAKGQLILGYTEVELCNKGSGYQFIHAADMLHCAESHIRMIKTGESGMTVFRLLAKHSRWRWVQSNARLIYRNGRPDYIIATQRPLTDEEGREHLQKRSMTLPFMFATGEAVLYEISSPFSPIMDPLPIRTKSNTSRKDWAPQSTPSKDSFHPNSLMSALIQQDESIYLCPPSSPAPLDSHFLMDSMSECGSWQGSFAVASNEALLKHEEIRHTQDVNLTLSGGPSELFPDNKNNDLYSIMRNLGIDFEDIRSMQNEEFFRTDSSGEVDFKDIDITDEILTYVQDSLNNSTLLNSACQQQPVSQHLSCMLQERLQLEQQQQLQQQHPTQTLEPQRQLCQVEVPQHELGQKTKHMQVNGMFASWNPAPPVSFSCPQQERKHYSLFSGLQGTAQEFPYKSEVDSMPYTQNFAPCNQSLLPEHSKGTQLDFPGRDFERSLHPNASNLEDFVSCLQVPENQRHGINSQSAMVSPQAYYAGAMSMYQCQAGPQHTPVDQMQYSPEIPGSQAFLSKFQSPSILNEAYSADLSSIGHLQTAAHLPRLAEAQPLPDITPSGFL

Nrf2 (Oxidative stress) = assay: Nrf2 CALUX; assay type: cell-based, human; conditions: 24 h exposure, lowest effect level FI=1.5, means from 3 assay runs
Procedure: as §1, §2, §3, §4, §5, §6, §7, §8, §9

U-2 OS cells [8] = assay: Cytotox CALUX; conditions: 24 h exposure, lowest effect level PC20, means from 3 assay runs
[9] = tested on: U-2 OS reporter cell lines battery; assay: CALUX reporter gene assay battery as a whole; conditions: all CALUX assays, 13 concentrations, 24 h exposure
[10] = human, plasma; cited from earlier work

Compound | PoD PR - anta (Progesterone receptor) | PoD PXR - ago (Pregnane X receptor) | PoD p21 [3] | PoD AR - anta (Androgen receptor) | PoD TRβ - anta [4] | PoD cytotoxicity (U-2 OS cells [8]) | response profile over the CALUX battery (in words) [9] | further results
CCCC(CCC)C(=O)O [Valproic acid] | 3.1 -log(M) | 4.0 -log(M) | 3.2 -log(M) | – | – | – | – | PoD PPARα - ago (PPARα): 4.0 -log(M); PoD TCF [1]: 4.0 -log(M); PoD ESRE [2]: 4.0 -log(M)
CC(=O)O[C@H]1C(=O)[C@@]2(C)[C@H]([C@H](OC(=O)c3ccccc3)[C@]3(O)C[C@H](OC(=O)[C@H](O)[C@@H](NC(=O)c4ccccc4)c4ccccc4)C(C)=C1C3(C)C)[C@]1(OC(C)=O)CO[C@@H]1C[C@@H]2O [Taxol] | 7.4 -log(M) | – | 8.0 -log(M) | 7.3 -log(M) | 7.4 -log(M) | – | – | concentration activating expression of p53 [5]: < 10 nM; PoD p53 ([5]; 24 h exposure, lowest effect level FI=1.5, means from 3 assay runs): 8.2 -log(M); PoD cytotoxicity (U-2 OS cells [6]): 5.6; cytotoxic concentration (U-2 OS cells [6]): about 2.5 µM
CC(C)(C)C(O)(CCc1ccc(Cl)cc1)Cn1cncn1 (stereo not shown) [Tebuconazole] | 5.6 -log(M) | 5.8 -log(M) | – | – | – | 4.3 -log(M) | – | PoD AhR - ago [7]: 5.1 -log(M); PoD Nrf2 (Nrf2 (Oxidative stress)): 4.2 -log(M)
Oc1c(Cl)cc(Cl)c(Cl)c1Cc1c(O)c(Cl)cc(Cl)c1Cl [Hexachlorophene] | – | – | – | 5.7 -log(M) | 6.0 -log(M) | 5.5 -log(M) | only activated nuclear hormone receptor related assays | –
CC(=O)Nc1ccc(O)cc1 [Paracetamol] | – | – | – | – | – | – | no effect | protein binding [10]: 15%
